Data taken from patent US20140072999A1, “METHODS OF SIMULATING CHEMOTHERAPY FOR A PATIENT” (Precision Therapeutics, Inc., priority 2008, published 2014).

Key:
[1] = tested on: tumor cells cultured from primary ovarian cancer specimens; assay: in vitro chemoresponse assay (ChemoFx), AUC7 drug response score; format: cell-based, human; conditions: for share of tumors exhibiting in vitro resistance: AUC7 score >75th rank, patients of the observational study; for AUC (first seven doses) of the 25% of historical dose response curves with the highest scores (resistant cut-off) / AUC (first 7 doses) of the 25% of historical dose response curves with the lowest scores (sensitive cut-off): sum of survival fractions over doses 1-7, more than 2,000 specimens; for AUC (first 7 doses) of the 25% of historical dose response curves with the lowest scores (sensitive cut-off): smaller score = more sensitive
Experimental: Briefly, in certain embodiments, cohesive multicellular particulates (explants) are prepared from a patient's tissue sample (e.g., a biopsy sample or surgical specimen) using mechanical fragmentation. This mechanical fragmentation of the explant may take place in a medium substantially free of enzymes that are capable of digesting the explant. Some enzymatic digestion may take place in certain embodiments. Generally, the tissue sample is systematically minced using two sterile scalpels in a scissor-like motion, or mechanically equivalent manual or automated opposing incisor blades. This cross-cutting motion creates smooth cut edges on the resulting tissue multicellular particulates. The tumor particulates each measure from about 0.25 to about 1.5 mm^3, for example, about 1 mm^3.
After the tissue sample has been minced, the particles are plated in culture flasks. The number of explants plated per flask may vary, for example, between one and 25, such as from 5 to 20 explants per flask. For example, about 9 explants may be plated per T-25 flask, and 20 particulates may be plated per T-75 flask. For purposes of illustration, the explants may be evenly distributed across the bottom surface of the flask, followed by initial inversion for about 10-15 minutes. The flask may then be placed in a non-inverted position in a 37° C. CO2 incubator for about […], Flasks are checked regularly for growth and contamination. Over a period of a few weeks a cell monolayer will form. Further, it is believed (without any intention of being bound by the theory) that tumor cells grow out from the multicellular explant prior to stromal cells. Thus, by initially maintaining the tissue cells within the explant and removing the explant at a predetermined time (e.g., at about 10 to about 50 percent confluency, or at about 15 to about 25 percent confluency), growth of the tumor cells (as opposed to stromal cells) into a monolayer is facilitated. In certain embodiments, the tumor explant may be agitated to substantially release tumor cells from the tumor explant, and the released cells cultured to produce a cell culture monolayer. The use of this procedure to form a cell culture monolayer helps maximize the growth of representative tumor cells from the tissue sample.
A panel of active agents may then be screened using the cultured cells. Generally, the agents are tested against the cultured cells using plates such as microtiter plates. For the chemosensitivity assay, a reproducible number of cells is delivered to a plurality of wells on one or more plates, preferably with an even distribution of cells throughout the wells. For example, cell suspensions are generally formed from the monolayer cells before substantial phenotypic drift of the tumor cell population occurs. The cell suspensions may be, without limitation, about 4,000 to 12,000 cells/ml, or may be about 4,000 to 9,000 cells/ml, or about 7,000 to 9,000 cells/ml. The individual wells for chemoresponse testing are inoculated with the cell suspension, with each well or “segregated site” containing about 10^2 to 10^4 cells. The cells are generally cultured in the segregated sites for about 4 to about 30 hours prior to contact with an agent.
The efficacy of each agent in the panel is determined against the patient's cultured cells, by determining the viability of the cells (e.g., number of viable cells). For example, at predetermined intervals before, simultaneously with, or beginning immediately after, contact with each agent or combination, an automated cell imaging system may take images of the cells using one or more of visible light, UV light and fluorescent light. Alternatively, the cells may be imaged after about 25 to about 200 hours of contact with each treatment. The cells may be imaged once or multiple times, prior to or during contact with each treatment. Of course, any method for determining the viability of the cells may be used to assess the efficacy of each treatment in vitro. […]

[2] = tested on: FIGO stage III-IV ovarian, fallopian and peritoneal cancer; assay: observational study: progression-free survival by in vitro response, patients treated with carboplatin + paclitaxel after cytoreductive surgery; format: in vivo, human; conditions: patients treated with C+P; for hazard ratio of disease progression, in vitro resistant vs S+I: univariate
Source text: Women with FIGO stage III-IV ovarian, fallopian and peritoneal cancer were enrolled in an observational study and received in vitro chemoresponse testing between 2006 and 2010. Two hundred seventy-six (276) patients treated with carboplatin (C)+paclitaxel (P) following cytoreductive surgery were included in this analysis. Tumor response to C or P was classified into one of three categories according to assay response score: sensitive (S), intermediately sensitive (I), and resistant (R). Patient clinical information and progression-free survival (PFS) were retrospectively collected. Association of assay drug response with […] was analyzed using Kaplan-Meier procedure and Cox regression model.

[3] = grouped by in vitro response to the named drug

| Structure (SMILES) | share of tumors exhibiting in vitro resistance [1] [%] | AUC (first seven doses) of the 25% of historical dose response curves with the highest scores (resistant cut-off) [1] | AUC (first 7 doses) of the 25% of historical dose response curves with the lowest scores (sensitive cut-off) [1] | hazard ratio of disease progression, in vitro resistant vs S+I, multivariate analysis ([2]; controlled for clinical covariates) | median PFS, tumors intermediately sensitive (I) in vitro [2, 3] [months] | median PFS, tumors resistant (R) in vitro [2, 3] [months] | median PFS, tumors sensitive (S) in vitro [2, 3] [months] | hazard ratio of disease progression, in vitro resistant vs S+I [2] |
| --- | --- | --- | --- | --- | --- | --- | --- | --- |
| N.N.O=C([O-])C1(C(=O)[O-])CCC1.[Pt+2] [carboplatin, Carboplatin] | 19 | ≥ 5.5 | ≤ 4.3 | 1.71 | 16.6 | 11.8 | 17.4 | 1.87 |
| CC(=O)O[C@H]1C(=O)[C@@]2(C)[C@H]([C@H](OC(=O)c3ccccc3)[C@]3(O)C[C@H](OC(=O)[C@H](O)[C@@H](NC(=O)c4ccccc4)c4ccccc4)C(C)=C1C3(C)C)[C@]1(OC(C)=O)CO[C@@H]1C[C@@H]2O [paclitaxel, Paclitaxel] | 22 | ≥ 6.0 | ≤ 5.0 | – | – | – | – | 1.43 |
